Like-named read-outs stand apart in the source and are kept apart here. Each block holds one compound with its values, some of them ahead of it.
Biological target: BCL6 (Homo sapiens (Human), UniProt P41182)
Assay: Immunofluorescence high content imaging of BCL6 degradation in T47D cells
Type: cell-based
Details: for DC50: class symbols A-D, read-out: EC50 (nM)*
Method in brief: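 Following a 3-day incubation with serially diluted bifunctional compounds (final top 0.1 or 1 μM), T47D cells were PFA-fixed and immunostained for BCL6. Nuclear BCL6 signal was captured on a high-content imager.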

Compound: CNC(=O)COc1cc2cc(Nc3nc(N4CCC(OCCOCCOCCOCCOCCOCC(=O)N[C@H](C(=O)N5C[C@H](O)C[C@H]5C(=O)NCc5ccc(-c6scnc6C)cc5)C(C)(C)C)CC4)ncc3Cl)ccc2n(C)c1=O [compound 82, (2S,4R)-1-((S)-2-(tert-butyl)-20-((1-(5-chloro-4-((1-methyl-3-(2-(methylamino)-2-oxoethoxy)-2-oxo-1,2-dihydroquinolin-6-yl)amino)pyrimidin-2-yl)piperidin-4-yl)oxy)-4-oxo-6,9,12,15,18-pentaoxa-3-azaicosanoyl)-4-hydroxy-N-(4-(4-methylthiazol-5-yl)benzyl)pyrrolidine-2-carboxamide]
DC50: 50 to 100 nM

Compound: CNC(=O)COc1cc2cc(Nc3nc(N4CCC(OCCOCCOCCCOc5ccc6c(c5)CN(C5CCC(=O)NC5=O)C6=O)CC4)ncc3Cl)ccc2n(C)c1=O (stereo not shown) [compound 146, 2-((6-((5-chloro-2-(4-(2-(2-(3-((2-(2,6-dioxopiperidin-3-yl)-1-oxoisoindolin-5-yl)oxy)propoxy)ethoxy)ethoxy)piperidin-1-yl)pyrimidin-4-yl)amino)-1-methyl-2-oxo-1,2-dihydroquinolin-3-yl)oxy)-N-methylacetamide]
DC50: > 100 nM

Compound: CNC(=O)COc1cc2cc(Nc3nc(N4CCC(OCCCOc5ccc6c(c5)CN(C5CCC(=O)NC5=O)C6=O)CC4)ncc3Cl)ccc2n(C)c1=O (stereo not shown) [compound 139, 2-((6-((5-chloro-2-(4-(3-((2-(2,6-dioxopiperidin-3-yl)-1-oxoisoindolin-5-yl)oxy)propoxy)piperidin-1-yl)pyrimidin-4-yl)amino)-1-methyl-2-oxo-1,2-dihydroquinolin-3-yl)oxy)-N-methylacetamide]
DC50: 50 to 100 nM

Compound: CNC(=O)COc1cc2cc(Nc3nc(N4CCC(OCCOCCOCCOc5ccc6c(c5)CN(C5CCC(=O)NC5=O)C6=O)CC4)ncc3Cl)ccc2n(C)c1=O (stereo not shown) [compound 65, 2-((6-((5-chloro-2-(4-(2-(2-(2-((2-(2,6-dioxopiperidin-3-yl)-1-oxoisoindolin-5-yl)oxy)ethoxy)ethoxy)ethoxy)piperidin-1-yl)pyrimidin-4-yl)amino)-1-methyl-2-oxo-1,2-dihydroquinolin-3-yl)oxy)-N-methylacetamide]
DC50: > 100 nM

Second part, the compound after the results:

Dmax (T47D cells): < 50%
IC50 (T47D cells): 10 to 50 nM
Compound: CNC(=O)COc1cc2cc(Nc3nc(N4CCC(CN5CCC(c6ccc(C(=O)NC7CCC(=O)NC7=O)o6)CC5)CC4)ncc3Cl)ccc2n(C)c1=O (stereo not shown) [compound 361, 5-[1-({1-[5-chloro-4-({1-methyl-3-[(methylcarbamoyl)methoxy]-2-oxo-1,2-dihydroquinolin-6-yl}amino)pyrimidin-2-yl]piperidin-4-yl}methyl)piperidin-4-yl]-N-(2,6-dioxopiperidin-3-yl)furan-2-carboxamide]

Dmax (T47D cells): 50 to 70%
IC50 (T47D cells): < 10 nM
Compound: CNC(=O)COc1cc2cc(Nc3nc(N4CCN(CC5CCN(c6ccc7c(c6)CN(C6CCC(=O)NC6=O)C7=O)CC5)CC4)ncc3Cl)ccc2n(C(C)C)c1=O (stereo not shown) [compound 388, 2-{[6-({5-chloro-2-[4-({1-[2-(2,6-dioxopiperidin-3-yl)-1-oxo-2,3-dihydro-1H-isoindol-5-yl]piperidin-4-yl}methyl)piperazin-1-yl]pyrimidin-4-yl}amino)-2-oxo-1-(propan-2-yl)-1,2-dihydroquinolin-3-yl]oxy}-N-methylacetamide]

IC50: < 10 nM
Dmax (T47D): ≥ 70%
Compound: CNC(=O)COc1cc2cc(Nc3nc(N4CCN(CC5CN(c6ccc7c(c6)C(=O)N(C6CCC(=O)NC6=O)C7=O)C5)CC4)ncc3Cl)ccc2n(C)c1=O (stereo not shown) [compound 246, 2-((6-((5-chloro-2-(4-((1-(2-(2,6-dioxopiperidin-3-yl)-1,3-dioxoisoindolin-5-yl)azetidin-3-yl)methyl)piperazin-1-yl)pyrimidin-4-yl)amino)-1-methyl-2-oxo-1,2-dihydroquinolin-3-yl)oxy)-N-methylacetamide]

Reference: patent US12310975B2, “Modulators of BCL6 proteolysis and associated methods of use” (Arvinas Operations, Inc., priority 2019, dated 2025)
